The values that follow come from patent US11040981B2, “Pyrrolotriazine compounds and methods of inhibiting TAM kinases” (Syros Pharmaceuticals, Inc., priority 2017, dated 2021).

In general, IC50 refers to the concentration that inhibits the measured activity by half.

Structures are written as SMILES.

Test [1] addresses T1, TYRO3 (Homo sapiens, UniProt Q06418).
T1 sequence (Q06418 41-890): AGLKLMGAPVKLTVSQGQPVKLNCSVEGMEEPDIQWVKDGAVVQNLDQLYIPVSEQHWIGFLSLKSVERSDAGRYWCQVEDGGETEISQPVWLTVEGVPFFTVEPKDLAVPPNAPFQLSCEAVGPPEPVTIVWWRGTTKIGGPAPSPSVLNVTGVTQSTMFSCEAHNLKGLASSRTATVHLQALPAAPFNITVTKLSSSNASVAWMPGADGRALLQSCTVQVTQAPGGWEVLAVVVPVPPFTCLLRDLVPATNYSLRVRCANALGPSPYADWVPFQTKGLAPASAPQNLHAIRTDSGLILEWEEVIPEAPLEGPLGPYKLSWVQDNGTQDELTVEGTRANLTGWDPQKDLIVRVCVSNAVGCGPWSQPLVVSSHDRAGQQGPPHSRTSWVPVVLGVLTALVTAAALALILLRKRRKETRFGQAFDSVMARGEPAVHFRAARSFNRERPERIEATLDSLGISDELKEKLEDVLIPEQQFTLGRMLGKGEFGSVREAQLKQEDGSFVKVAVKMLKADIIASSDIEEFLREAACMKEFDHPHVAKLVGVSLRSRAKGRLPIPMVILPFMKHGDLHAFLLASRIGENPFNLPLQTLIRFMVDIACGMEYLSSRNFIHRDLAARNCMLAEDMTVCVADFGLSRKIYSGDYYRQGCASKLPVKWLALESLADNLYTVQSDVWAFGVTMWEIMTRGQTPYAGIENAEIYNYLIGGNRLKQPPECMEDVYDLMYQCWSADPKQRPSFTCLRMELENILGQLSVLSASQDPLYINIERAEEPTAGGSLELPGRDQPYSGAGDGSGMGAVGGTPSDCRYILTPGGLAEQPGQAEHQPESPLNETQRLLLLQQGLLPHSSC
In words: TR-FRET kinase activity assay, TYRO3. In kind it is biochemical. The conditions noted are these: ATP at Km, 60 minutes. A digest of the protocol:
(§1)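 IC50 reflects the drop in TR-FRET between Eu anti-phosphotyrosine antibody and labelled peptide after a 60-minute room-temperature reaction. Buffer was 50 mM HEPES pH 7.5 with 10 mM MgCl2, 1 mM EGTA, 0.01% Brij 35 and 1 mM DTT, with ATP at Km per enzyme and EDTA quench.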

Test [2] concerns the target T2, FLT3 (Homo sapiens, UniProt P36888).
T2 sequence (P36888 27-993): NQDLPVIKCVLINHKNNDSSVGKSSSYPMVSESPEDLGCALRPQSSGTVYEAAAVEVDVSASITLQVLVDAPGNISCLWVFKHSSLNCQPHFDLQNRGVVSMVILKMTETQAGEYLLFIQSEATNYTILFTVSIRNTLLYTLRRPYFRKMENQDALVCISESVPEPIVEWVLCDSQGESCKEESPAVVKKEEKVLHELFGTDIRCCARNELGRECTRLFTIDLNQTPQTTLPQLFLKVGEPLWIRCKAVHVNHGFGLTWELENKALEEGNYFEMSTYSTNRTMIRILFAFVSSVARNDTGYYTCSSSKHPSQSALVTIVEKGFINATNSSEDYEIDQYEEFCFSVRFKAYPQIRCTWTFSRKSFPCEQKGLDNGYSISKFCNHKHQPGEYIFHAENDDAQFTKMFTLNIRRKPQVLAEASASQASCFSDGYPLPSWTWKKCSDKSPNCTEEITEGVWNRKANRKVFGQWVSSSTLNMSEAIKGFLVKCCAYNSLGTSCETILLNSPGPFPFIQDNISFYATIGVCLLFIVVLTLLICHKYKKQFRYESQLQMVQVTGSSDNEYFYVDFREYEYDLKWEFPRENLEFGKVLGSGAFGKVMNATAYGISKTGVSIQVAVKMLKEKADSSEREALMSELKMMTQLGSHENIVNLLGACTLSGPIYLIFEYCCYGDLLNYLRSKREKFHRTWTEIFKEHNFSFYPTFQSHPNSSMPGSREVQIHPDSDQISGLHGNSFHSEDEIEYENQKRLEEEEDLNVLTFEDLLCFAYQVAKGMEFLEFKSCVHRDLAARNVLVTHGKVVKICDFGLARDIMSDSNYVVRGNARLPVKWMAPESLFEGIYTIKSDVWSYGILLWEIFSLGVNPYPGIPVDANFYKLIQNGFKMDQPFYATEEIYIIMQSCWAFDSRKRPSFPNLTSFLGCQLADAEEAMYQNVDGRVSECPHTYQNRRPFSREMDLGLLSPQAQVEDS
In words: TR-FRET kinase activity assay, FLT3. In kind it is biochemical. Particulars: ATP at Km, 60 minutes. A digest of the protocol: as §1

In the case of `COC[C@H](C)Nc1ncc2c(-c3cn(C)cn3)cc([C@H]3CC[C@H](O)CC3)n2n1` [Compound 186], the IC50 was no more than 100 nM in test [1] and 100 to 1000 nM in test [2].

For the compound `CC(CC1CC1)Nc1ncc2c(-c3ccc(CN4CCOCC4)cc3)cc(C3CCC(O)CC3)n2n1` (stereo not drawn) [Compound 189], the IC50 in test [1] and in test [2] was no more than 100 nM each time.

Consider `COCC(C)Nc1ncc2c(C3CC4CCC(C3)N4C)cc(C3CCC(O)CC3)n2n1` (stereo not drawn) [Compound 191], for which the results for the IC50 in test [1] and in test [2] were no more than 100 nM and 1000 to 10000 nM, respectively.

`C[C@@H](COC(F)F)Nc1ncc2c(-c3ccc(CN4CCOCC4)cc3)cc([C@H]3CC[C@H](O)CC3)n2n1` [Compound 188]: the IC50 in test [1] and in test [2] was no more than 100 nM each time.

As for `COCC(C)Nc1ncc2c(-c3ccc(C4(N5CCN(C)CC5)CC4)cc3)cc(C3CCC(O)CC3)n2n1` (stereo not drawn) [Compound 185], the IC50 is no more than 100 nM in test [1] and 100 to 1000 nM in test [2].

Regarding `Cc1cc(-c2cc(C3CCC(O)CC3)n3nc(NC(C)CC4CC4)ncc23)ccn1` (stereo not drawn) [Compound 190], the IC50 in test [1] and in test [2] was no more than 100 nM each time.

In the case of `COC[C@H](C)Nc1ncc2c(-c3ccc(C(=O)N4CCOCC4)cc3)cc([C@H]3CC[C@H](O)CC3)n2n1` [Compound 187, (4-(7-((trans)-4-hydroxycyclohexyl)-2-(((S)-1-methoxypropan-2-yl)amino)pyrrolo[2,1-f][1,2,4]triazin-5-yl)phenyl)(morpholino)methanone], the figures for the IC50 in test [1] and in test [2] were no more than 100 nM and 100 to 1000 nM, respectively.

Consider `COCC(C)Nc1ncc2c(N3CCOCC3=O)cc(C3CCC(O)CC3)n2n1` (stereo not drawn) [Compound 192], for which the IC50 in test [1] and in test [2] was 1000 to 10000 nM throughout.

`CCCCC[C@H](C)Nc1ncc2c(-c3ccc(S(=O)(=O)N4CCOCC4)cc3)cc([C@H]3CC[C@@H](O)CC3)n2n1` [Compound 103, (1R,4s)-4-(2-((S)-heptan-2-ylamino)-5-(4-(morpholinosulfonyl)phenyl)pyrrolo[2,1-f][1,2,4]triazin-7-yl)cyclohexanol]: the IC50 in test [1] and in test [2] was 100 to 1000 nM each time.
